These results are taken from ChEMBL document CHEMBL1240352, “Panel of prototypical raltegravir-resistant infectious molecular clones in a novel integrase-deleted cloning vector” (2010).

Holding throughout (assay type): functional
Assay [1] relates to Human immunodeficiency virus 1. Description: Antiviral activity against Human immunodeficiency virus 1 clone 8070_1 harboring integrase G140S, Y143H,Q148H and K14R, L101I, T112A, G193E, D229E, D279G mutation in transfected in human C8166 cells assessed as decrease in compound susceptibility relative to wild-type.
Assay [2] concerns Human immunodeficiency virus 1. The assay is described as follows: Antiviral activity against Human immunodeficiency virus 1 clone 4736_9 harboring integrase N155H, E92Q H51Y and D6E, S17N, R20K, D25E, S39C, D41H, L45V, L101I, T124A, K160T, V201I,K211R, D288N mutation transfected in human C8166 cells assessed as decrease in compound susceptibility relative to wild-type.
For assay [3], the system named is Human immunodeficiency virus 1. Description: Antiviral activity against Human immunodeficiency virus 1 clone 2253 harboring integrase S17N, V31I, I72V, L101I, T124A, K156N,V201I, I220M, D279G, R284G mutation transfected into human C8166 cells assessed as decrease in compound susceptibility relative to wild-type.
In assay [4] the test system is Human immunodeficiency virus 1. The assay is described as follows: Antiviral activity against Human immunodeficiency virus 1 clone 1288 harboring integrase M154L and E11D, V31I, L101I, K160R, F181L,V201I, T206S, D256E mutation transfected into human C8166 cells assessed as decrease in compound susceptibility relative to wild-type.
For assay [5], the system named is Human immunodeficiency virus 1. Description: Antiviral activity against Human immunodeficiency virus 1 clone 4736_10 harboring integrase N155H, V151I, G163R and D6E, S17N, R20K, D25E, S39C, L45V, L101I, T124A, K160T, V201I, K211R, D288N mutation transfected in human C8166 cells assessed as decrease in compound susceptibility relative to wild-type.
The test system of assay [6] is Human immunodeficiency virus 1. Description: Antiviral activity against Human immunodeficiency virus 1 clone 4736_2 harboring integrase N155H,T97A and D6E, S17N, R20K, D25E, S39C, L45V,L101I, V201I, S119R, T124A, K160T, K211R, D288N mutation transfected into human C8166 cells assessed as decrease in compound susceptibility relative to wild-type.
The subject of assay [7] is Human immunodeficiency virus 1. The assay is described as follows: Antiviral activity against Human immunodeficiency virus 1 clone 1556 harboring integrase Y143C, L74M, T97A, S230R, K7R, S17N, R20K, L101I, K111Q, T112K, S119R, T206S, D256E, V259I mutation transfected in human C8166 cells assessed as decrease in compound susceptibility relative to wild-type.
In assay [8] the test system is Human immunodeficiency virus 1. Description: Antiviral activity against Human immunodeficiency virus 1 clone 4736_4 harboring integrase N155H, E92Q and D6E, S17N, R20K, D25E, S39C, L45V, L101I, T124A, K160T, V201I, K211R, D288N mutation transfected in human C8166 cells assessed as decrease in compound susceptibility relative to wild-type.
Assay [9] has as its system Human immunodeficiency virus 1. Description: Antiviral activity against Human immunodeficiency virus 1 clone 8070_2 harboring integrase G140S, Q148H, K14R, L63I, L101I, T112A, G193E, D229E, D279G mutation transfected in human C8166 cells assessed as decrease in compound susceptibility relative to wild-type.
Assay [10] deals with Human immunodeficiency virus 1. The assay is described as follows: Antiviral activity against Human immunodeficiency virus 1 clone 4378 harboring integrase E157Q V31I, V32I, S39C, I72V, L101I, K160Q, F181L, V201I, Q216H, A265V mutation transfected in human C8166 cells assessed as decrease in compound susceptibility relative to wild-type.

Consider `Cc1nnc(C(=O)NC(C)(C)c2nc(C(=O)NCc3ccc(F)cc3)c(O)c(=O)n2C)o1` [RALTEGRAVIR], for which the “fold change (FC)” value is on record as greater than 200 in [1]; 94 in assay [2]; 0.4 in assay [3]; 1.06 in [4]; 48 in [5]; 116 in [6]. Moreover, the “fold change (FC)” value in assay [7] was greater than 200; in [8], 96; in assay [9], greater than 200; in [10] it was 1.15.
